Assay results from US12263248B2, “Compounds and compositions for intracellular delivery of therapeutic agents” (ModernaTX, Inc., priority 2018, dated 2025).

What was measured:
[1] = Nanoparticle characterisation: particle size, polydispersity index, zeta potential; assay type: physicochemical; conditions: nanoparticle composition with hEPO mRNA (Table 30)
Excerpt: Nanoparticle compositions may be characterized by a variety of methods. For example, microscopy (e.g., transmission electron microscopy or scanning electron microscopy) may be used to examine the morphology and size distribution of a nanoparticle composition. Dynamic light scattering or potentiometry (e.g., potentiometric titrations) may be used to measure zeta potentials. Dynamic light scattering may also be utilized to determine particle sizes. Instruments such as the Zetasizer Nano ZS (Malvern Instruments Ltd, Malvern, Worcestershire, UK) may also be used to measure multiple characteristics of a nanoparticle composition, such as particle size, polydispersity index, and zeta potential.
The mean size of a nanoparticle composition may be between 10s of nm and 100s of nm, e.g., measured by dynamic light scattering (DLS). For example, the mean size may be from about 40 nm to about 150 nm, such as about 40 nm, 45 nm, 50 nm, 55 nm, 60 nm, 65 nm, 70 nm, 75 nm, 80 nm, 85 nm, 90 nm, 95 nm, 100 nm, 105 nm, 110 nm, 115 nm, 120 nm, 125 nm, 130 nm, 135 nm, 140 nm, 145 nm, or 150 nm. In some embodiments, the mean size of a nanoparticle composition may be from about 50 nm to about 100 nm, from about 50 nm to about 90 nm, from about 50 nm to about 80 nm, from about 50 nm to about 70 nm, from about 50 nm to about 60 nm, from about 60 nm to about 100 nm, from about 60 nm to about 90 nm, from about 60 nm to about 80 nm, from about 60 nm to about 70 nm, from about 70 nm to about 150 nm, from about 70 nm to about 130 nm, from about 70 nm to about 100 nm, from about 70 nm to about 90 nm, from about 70 nm to about 80 nm, from about 80 nm to about 150 nm, from about 80 nm to about 130 nm, from about 80 nm to about 100 nm, from about 80 nm to about 90 nm, from about 90 nm to about 150 nm, from about 90 nm to about 130 nm, or from about 90 nm to about 100 nm. In certain embodiments, the mean size of a nanoparticle composition may from about 70 nm to about 130 nm or be from about 70 nm to about 100 nm. In a particular embodiment, the mean size may be about 80 nm. In other embodiments, the mean size may be about 100 nm. In other embodiments, the mean size may be about 120 nm.
A nanoparticle composition may be relatively homogenous. A polydispersity index may be used to indicate the homogeneity of a nanoparticle composition, e.g., the particle size distribution of the nanoparticle compositions. A small (e.g., less than 0.3) polydispersity index generally indicates a narrow particle size distribution. A nanoparticle composition may have a polydispersity index from about 0 to about 0.25, such as 0.01, 0.02, 0.03, 0.04, 0.05, 0.06, 0.07, 0.08, 0.09, 0.10, 0.11, 0.12, 0.13, 0.14, 0.15, 0.16, 0.17, 0.18, 0.19, 0.20, 0.21, 0.22, 0.23, 0.24, or 0.25. In some embodiments, the polydispersity index of a nanoparticle composition may be from about 0.10 to about 0.20.
The zeta potential of a nanoparticle composition may be used to indicate the electrokinetic potential of the composition. For example, the zeta potential may describe the surface charge of a nanoparticle composition. Nanoparticle compositions with relatively low charges, positive or negative, are generally desirable, as more highly charged species may interact undesirably with cells, tissues, and other elements in the body. In some embodiments, the zeta potential of a nanoparticle composition may be from about −10 mV to about +20 mV, from about −10 mV to about +15 mV, from about −10 mV to about +10 mV, from about −10 mV to about +5 mV, from about −10 mV to about 0 mV, from about −10 mV to about −5 mV, from about −5 mV to about +20 mV, from about −5 mV to about +15 mV, from about −5 mV to about +10 mV, from about −5 mV to about +5 mV, from about −5 mV to about 0 mV, from about 0 mV to about +20 mV, from about 0 mV to about +15 mV, from about 0 mV to about +10 mV, from about 0 mV to about +5 mV, from about +5 mV to about +20 mV, from about +5 mV to about +15 mV, or from about +5 mV to about +10 mV.

[2] = test system: hEPO mRNA; assay: hEPO expression and pharmacokinetic parameters in non-human primates; assay type: in vivo, Cynomolgus monkeys
Method: The tolerability and efficacy of nanoparticle compositions to non-human primates was also investigated using a sample formulation including Compound 18. The formulation was prepared according to the standard MC3 formulation described above and included an hEPO mRNA. Primates were administered a single dose of 0.05 (Group 1), 0.3 (Group 2), or 1.0 (Group 3) mpk via intravenous infusion for 60 minutes. Three primates were administered each dose. Expression of hEPO was measured prior to dosing and at 2, 6, 24, 48, and 96 hours post-treatment (Table 26). Table 28 includes levels of indicators of complement activation, while Table 29 includes cytokine induction data.
The tolerability and efficacy of nanoparticle compositions to non-human primates was also investigated using sample formulations including Compounds 18, 25, 26, and 48 and MC3 to determine if these compounds are differentiated in terms of protein expression. The formulations were prepared according to the standard MC3 formulation described above and included an hEPO mRNA. Table 30 includes details of the compositions tested, while Table 31 summarizes the relative expression of Luc and hEPO mRNA in mice and rats. Expression was measured 6 hours after administration.
As is evident in the figure, expression was highest 6 hours post administration for all formulations tested, and was highest for those formulations including Compound 18.
NHP studies: Nonhuman primate studies were conducted using naïve cynomolgus monkeys (cynos), 2-4 years old, weighing 2-6 kg. No treatment randomization or blinding methods were used for any of the animal studies. Sample sizes were determined by the resource equation method. For injection, mRNA-LNPs in phosphate buffered saline (PBS) were administered by 60-minute intravenous infusion using a temporary indwelling catheter inserted in a peripheral vein.
hEPO ELISA for NHP samples: Human Epo levels were measured using a human erythropoietin immunoassay. Cytokines levels were measured using a non-human primate cytokine kit. […]

[3] = hEPO, 0.01 mpk i.v. infusion, non-human primates

Structure (SMILES): CCCCC/C=C\C/C=C\CCCCCCCCC(CCCCCCCC/C=C\C/C=C\CCCCC)OC(=O)CCCN(C)C [MC3, DLin-MC3-DMA, reference compound]
- Osmolality [1]: 318 mOsm/kg
- Zeta potential [1]: −3.64 mV
- pH [1]: 7.52
- AUC0-t Mean [2, 3]: 284 ng·h/mL
- AUC Lipid/MC3 Ratio [2, 3]: 1.0
- Cmax Mean [2, 3]: 14.1 ng/mL
- Tmax Mean [2, 3]: 8 h

Structure (SMILES): CCCCCCCCCOC(=O)CCCN(CCO)CCCCCCCC(=O)OC(CCCCCCCC)CCCCCCCC [Compound 26, Heptadecan-9-yl 8-((2-hydroxyethyl)(4-(nonyloxy)-4-oxobutyl)amino) octanoate]
- Osmolality [1]: 305 mOsm/kg
- Zeta potential [1]: −3.73 mV
- pH [1]: 7.54
- AUC Lipid/MC3 Ratio [2, 3]: 1.3

Structure (SMILES): CCCCCCCCCCCOC(=O)CCCCCN(CCO)CCCCCCCC(=O)OC(CCCCCCCC)CCCCCCCC [Compound 25, Heptadecan-9-yl 8-((2-hydroxyethyl)(6-oxo-6-(undecyloxy)hexyl)amino)octanoate]
- Osmolality [1]: 304 mOsm/kg
- Zeta potential [1]: −3.88 mV
- pH [1]: 7.60
- AUC Lipid/MC3 Ratio [2, 3]: 3.3

Structure (SMILES): CCCCCCCCCOC(=O)CCCCCCCN(CCO)CCCCCCCC(=O)OC(CCCCCCCC)CCCCCCCC [Compound 18, Heptadecan-9-yl 8-((2-hydroxyethyl)(8-(nonyloxy)-8-oxooctyl)amino)octanoate]
- Osmolality [1]: 312 mOsm/kg
- Zeta potential [1]: −3.53 mV
- pH [1]: 7.64
- hEPO concentration ([2]; 0.05 mpk i.v. infusion, 2 h): 142588 pg/mL
- hEPO concentration ([2]; 0.05 mpk i.v. infusion, 6 h): 379362 pg/mL
- hEPO concentration ([2]; 0.05 mpk i.v. infusion, 24 h): 103055 pg/mL
- hEPO concentration ([2]; 0.05 mpk i.v. infusion, 48 h): 25382 pg/mL
- hEPO concentration ([2]; 0.05 mpk i.v. infusion, 96 h): 2084 pg/mL
- hEPO concentration ([2]; 0.05 mpk i.v. infusion, Predose): 1000 pg/mL
- hEPO concentration ([2]; 0.3 mpk i.v. infusion, 2 h): 363272 pg/mL
- hEPO concentration ([2]; 0.3 mpk i.v. infusion, 6 h): 341285 pg/mL
- hEPO concentration ([2]; 0.3 mpk i.v. infusion, 24 h): 148789 pg/mL
- hEPO concentration ([2]; 0.3 mpk i.v. infusion, 48 h): 57095 pg/mL
- hEPO concentration ([2]; 0.3 mpk i.v. infusion, 96 h): 6095 pg/mL
- hEPO concentration ([2]; 0.3 mpk i.v. infusion, Predose): 1000 pg/mL
- hEPO concentration ([2]; 1.0 mpk i.v. infusion, 2 h): 312006 pg/mL
- hEPO concentration ([2]; 1.0 mpk i.v. infusion, 6 h): 502663 pg/mL
- hEPO concentration ([2]; 1.0 mpk i.v. infusion, 24 h): 467598 pg/mL
- hEPO concentration ([2]; 1.0 mpk i.v. infusion, 48 h): 175953 pg/mL
- hEPO concentration ([2]; 1.0 mpk i.v. infusion, 96 h): 24795 pg/mL
- hEPO concentration ([2]; 1.0 mpk i.v. infusion, Predose): 1000 pg/mL
- exposure of hEPO protein relative to the MC3 LNP control ([2]; NHP, 0.01 mg/kg, 60 minute intravenous infusion): five-fold higher
- AUC Lipid/MC3 Ratio [2, 3]: 6.0
- hEPO mRNA expression ([2]; naive cynomolgus monkeys, i.v. 0.01 mpk, 60 minutes infusion): highest
- hEPO levels compared with MC3 formulations ([2]; non-human primates, comparable doses): higher than those measured upon administration of comparable doses of MC3 formulations

Structure (SMILES): CCCCCCCCC(C)OC(=O)CCCCCCCN(CCO)CCCCCCCC(=O)OC(CCCCCCCC)CCCCCCCC (centres unmarked) [Compound 48, decan-2-yl 8-((8-(heptadecan-9-yloxy)-8-oxooctyl)(2-hydroxyethyl)amino)octanoate]
- Osmolality [1]: 311 mOsm/kg
- Zeta potential [1]: −3.61 mV
- pH [1]: 7.58
- AUC Lipid/MC3 Ratio [2, 3]: 0.9
